Where two headings read alike, the source gives them in different places.
Key:
[1] = biological target: EGFR L858R/T790M/C797S (Homo sapiens, UniProt P00533, C797S/L858R/T790M); test: Biochemical EGFR kinase inhibition assay (Lance Ultra TR-FRET), triple mutant L858R/T790M/C797S
Procedure, shortened: (§1)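 Step 1: compound in kinase buffer, 0.003–10 μM. Step 2: kinase reaction 1 h at room temperature. Step 4: TR-FRET read at 615/665 nm; IC50 calculated.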

[2] = biological target: EGFR L858R/C797S (Homo sapiens, UniProt P00533, C797S/L858R); test: Biochemical EGFR kinase inhibition assay (Lance Ultra TR-FRET), double mutant L858R/C797S
Chain of EGFR L858R/C797S (P00533 25-1210 C797S/L858R): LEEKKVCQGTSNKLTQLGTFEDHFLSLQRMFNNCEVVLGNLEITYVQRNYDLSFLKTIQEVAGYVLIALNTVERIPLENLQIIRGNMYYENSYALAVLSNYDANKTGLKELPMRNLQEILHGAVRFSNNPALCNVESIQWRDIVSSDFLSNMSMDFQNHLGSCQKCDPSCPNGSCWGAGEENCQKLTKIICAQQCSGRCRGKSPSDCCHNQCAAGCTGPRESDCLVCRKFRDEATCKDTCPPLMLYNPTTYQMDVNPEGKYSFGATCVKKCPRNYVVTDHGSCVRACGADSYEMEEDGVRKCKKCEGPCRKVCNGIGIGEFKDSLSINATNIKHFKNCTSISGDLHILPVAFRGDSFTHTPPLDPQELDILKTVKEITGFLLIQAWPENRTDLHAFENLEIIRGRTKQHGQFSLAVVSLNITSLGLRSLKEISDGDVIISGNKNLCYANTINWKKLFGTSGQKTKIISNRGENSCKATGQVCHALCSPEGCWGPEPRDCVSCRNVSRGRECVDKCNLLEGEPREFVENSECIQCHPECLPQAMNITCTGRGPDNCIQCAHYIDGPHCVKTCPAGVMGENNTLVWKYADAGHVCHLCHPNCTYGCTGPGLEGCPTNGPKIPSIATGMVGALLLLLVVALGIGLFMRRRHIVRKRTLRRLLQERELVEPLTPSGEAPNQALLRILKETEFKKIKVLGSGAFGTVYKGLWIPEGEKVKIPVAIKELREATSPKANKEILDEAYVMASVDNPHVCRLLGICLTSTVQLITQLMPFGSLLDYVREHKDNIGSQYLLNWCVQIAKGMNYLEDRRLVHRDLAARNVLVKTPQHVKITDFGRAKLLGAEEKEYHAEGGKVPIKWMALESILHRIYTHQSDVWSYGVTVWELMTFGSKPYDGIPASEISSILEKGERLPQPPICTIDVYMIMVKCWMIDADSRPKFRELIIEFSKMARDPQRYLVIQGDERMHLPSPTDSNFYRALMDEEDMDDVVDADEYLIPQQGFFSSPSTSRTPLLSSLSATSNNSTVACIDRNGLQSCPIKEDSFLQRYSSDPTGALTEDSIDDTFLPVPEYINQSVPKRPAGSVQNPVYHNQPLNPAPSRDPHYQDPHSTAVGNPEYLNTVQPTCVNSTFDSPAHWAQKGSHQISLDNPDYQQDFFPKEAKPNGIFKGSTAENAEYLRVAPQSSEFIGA
Procedure, shortened: as §1

[3] = biological target: EGFR wildtype (WT) (Homo sapiens, UniProt P00533); test: Biochemical EGFR kinase inhibition assay (Lance Ultra TR-FRET), wildtype
Chain of EGFR wildtype (WT) (P00533 25-1210): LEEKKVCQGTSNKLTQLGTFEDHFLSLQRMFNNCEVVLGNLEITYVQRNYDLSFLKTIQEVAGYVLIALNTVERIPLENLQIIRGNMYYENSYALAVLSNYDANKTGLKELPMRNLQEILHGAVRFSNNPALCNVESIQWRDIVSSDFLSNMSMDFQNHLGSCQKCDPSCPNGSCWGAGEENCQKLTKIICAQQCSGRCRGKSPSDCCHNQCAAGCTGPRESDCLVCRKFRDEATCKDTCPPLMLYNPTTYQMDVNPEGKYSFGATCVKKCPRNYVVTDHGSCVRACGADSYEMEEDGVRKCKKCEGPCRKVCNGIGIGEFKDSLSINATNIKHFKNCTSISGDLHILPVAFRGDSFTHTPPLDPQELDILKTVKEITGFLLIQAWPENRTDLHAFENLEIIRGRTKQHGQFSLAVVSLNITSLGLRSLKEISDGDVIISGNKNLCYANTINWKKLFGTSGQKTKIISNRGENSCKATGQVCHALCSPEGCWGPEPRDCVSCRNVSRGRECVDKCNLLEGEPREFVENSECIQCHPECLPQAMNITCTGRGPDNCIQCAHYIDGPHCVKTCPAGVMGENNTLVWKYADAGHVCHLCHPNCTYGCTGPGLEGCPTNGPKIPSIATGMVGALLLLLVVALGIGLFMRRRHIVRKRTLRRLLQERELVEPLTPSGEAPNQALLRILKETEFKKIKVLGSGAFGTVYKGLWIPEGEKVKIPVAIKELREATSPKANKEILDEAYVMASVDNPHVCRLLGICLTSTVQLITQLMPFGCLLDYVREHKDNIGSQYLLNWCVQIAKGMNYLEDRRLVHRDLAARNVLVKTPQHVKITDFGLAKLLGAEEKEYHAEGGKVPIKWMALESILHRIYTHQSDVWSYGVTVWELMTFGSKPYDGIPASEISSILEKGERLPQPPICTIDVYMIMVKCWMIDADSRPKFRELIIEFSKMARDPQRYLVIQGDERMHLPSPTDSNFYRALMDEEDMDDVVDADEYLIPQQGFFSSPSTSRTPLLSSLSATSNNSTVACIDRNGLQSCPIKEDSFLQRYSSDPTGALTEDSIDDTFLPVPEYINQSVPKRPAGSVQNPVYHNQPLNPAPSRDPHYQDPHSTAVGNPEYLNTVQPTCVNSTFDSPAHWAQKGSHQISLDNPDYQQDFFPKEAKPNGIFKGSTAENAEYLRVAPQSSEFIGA
Procedure, shortened: as §1

[4] = biological target: EGFR Del19/C797S (Homo sapiens, UniProt P00533, C797S/DEL746-750); test: Biochemical EGFR kinase inhibition assay (Lance Ultra TR-FRET), double mutant del19/C797S
Procedure, shortened: as §1

[5] = biological target: EGFR Del19/T790M/C797S (Homo sapiens, UniProt P00533, C797S/DEL746-750/T790M); test: Biochemical EGFR kinase inhibition assay (Lance Ultra TR-FRET), triple mutant del19/T790M/C797S
Chain of EGFR Del19/T790M/C797S (P00533 with tags, fused parts or gaps DEL746-750/T790M/C797S): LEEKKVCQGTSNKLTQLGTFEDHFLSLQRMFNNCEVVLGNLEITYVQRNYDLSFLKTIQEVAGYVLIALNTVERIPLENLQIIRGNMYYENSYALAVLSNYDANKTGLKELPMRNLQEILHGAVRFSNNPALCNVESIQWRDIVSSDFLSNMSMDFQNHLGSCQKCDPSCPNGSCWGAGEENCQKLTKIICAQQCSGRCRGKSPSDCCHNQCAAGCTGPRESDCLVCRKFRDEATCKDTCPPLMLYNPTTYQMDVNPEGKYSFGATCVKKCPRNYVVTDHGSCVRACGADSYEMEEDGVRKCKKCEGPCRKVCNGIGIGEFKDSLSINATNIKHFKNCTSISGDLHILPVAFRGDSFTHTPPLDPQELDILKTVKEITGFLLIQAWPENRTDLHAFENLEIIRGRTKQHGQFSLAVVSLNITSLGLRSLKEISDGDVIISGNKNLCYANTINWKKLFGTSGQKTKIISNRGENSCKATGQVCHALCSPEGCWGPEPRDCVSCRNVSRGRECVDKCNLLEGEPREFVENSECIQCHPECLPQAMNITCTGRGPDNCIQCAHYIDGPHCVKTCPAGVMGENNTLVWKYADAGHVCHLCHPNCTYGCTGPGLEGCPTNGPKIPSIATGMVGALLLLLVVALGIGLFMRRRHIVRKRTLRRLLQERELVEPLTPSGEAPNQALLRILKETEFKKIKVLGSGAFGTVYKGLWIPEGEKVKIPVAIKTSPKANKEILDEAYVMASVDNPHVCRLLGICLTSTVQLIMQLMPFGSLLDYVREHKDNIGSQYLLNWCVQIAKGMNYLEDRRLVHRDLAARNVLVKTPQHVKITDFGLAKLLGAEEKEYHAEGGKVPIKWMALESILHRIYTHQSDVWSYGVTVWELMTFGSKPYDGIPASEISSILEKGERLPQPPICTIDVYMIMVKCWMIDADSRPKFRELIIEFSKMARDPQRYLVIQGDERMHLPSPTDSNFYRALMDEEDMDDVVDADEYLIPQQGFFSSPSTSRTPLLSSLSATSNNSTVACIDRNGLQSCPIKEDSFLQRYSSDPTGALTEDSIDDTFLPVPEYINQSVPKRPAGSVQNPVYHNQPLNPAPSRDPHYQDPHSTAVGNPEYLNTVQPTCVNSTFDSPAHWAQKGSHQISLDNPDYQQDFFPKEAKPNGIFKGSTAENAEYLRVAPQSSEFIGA
Procedure, shortened: as §1

[6] = ATP at Km, read-out: IC50 L858R/T790M/C797S (nM), Km ATP
[7] = IC50 L858R/T790M/C797S (nM), 100 μM ATP
[8] = ATP at Km, read-out: IC50 L858R/C797S (nM), Km ATP
[9] = IC50 L858R/C797S (nM), 100 μM ATP
[10] = ATP at Km, read-out: IC50 WT (nM), Km ATP
[11] = ATP at Km, read-out: IC50 Del19/C797S (nM), Km ATP
[12] = IC50 Del19/C797S (nM), 100 μM ATP
[13] = ATP at Km, read-out: IC50 Del19/T790M/C797S (nM), Km ATP
[14] = IC50 Del19/T790M/C797S (nM), 100 μM ATP

Chain of EGFR L858R/T790M/C797S (P00533 25-1210 T790M/C797S/L858R): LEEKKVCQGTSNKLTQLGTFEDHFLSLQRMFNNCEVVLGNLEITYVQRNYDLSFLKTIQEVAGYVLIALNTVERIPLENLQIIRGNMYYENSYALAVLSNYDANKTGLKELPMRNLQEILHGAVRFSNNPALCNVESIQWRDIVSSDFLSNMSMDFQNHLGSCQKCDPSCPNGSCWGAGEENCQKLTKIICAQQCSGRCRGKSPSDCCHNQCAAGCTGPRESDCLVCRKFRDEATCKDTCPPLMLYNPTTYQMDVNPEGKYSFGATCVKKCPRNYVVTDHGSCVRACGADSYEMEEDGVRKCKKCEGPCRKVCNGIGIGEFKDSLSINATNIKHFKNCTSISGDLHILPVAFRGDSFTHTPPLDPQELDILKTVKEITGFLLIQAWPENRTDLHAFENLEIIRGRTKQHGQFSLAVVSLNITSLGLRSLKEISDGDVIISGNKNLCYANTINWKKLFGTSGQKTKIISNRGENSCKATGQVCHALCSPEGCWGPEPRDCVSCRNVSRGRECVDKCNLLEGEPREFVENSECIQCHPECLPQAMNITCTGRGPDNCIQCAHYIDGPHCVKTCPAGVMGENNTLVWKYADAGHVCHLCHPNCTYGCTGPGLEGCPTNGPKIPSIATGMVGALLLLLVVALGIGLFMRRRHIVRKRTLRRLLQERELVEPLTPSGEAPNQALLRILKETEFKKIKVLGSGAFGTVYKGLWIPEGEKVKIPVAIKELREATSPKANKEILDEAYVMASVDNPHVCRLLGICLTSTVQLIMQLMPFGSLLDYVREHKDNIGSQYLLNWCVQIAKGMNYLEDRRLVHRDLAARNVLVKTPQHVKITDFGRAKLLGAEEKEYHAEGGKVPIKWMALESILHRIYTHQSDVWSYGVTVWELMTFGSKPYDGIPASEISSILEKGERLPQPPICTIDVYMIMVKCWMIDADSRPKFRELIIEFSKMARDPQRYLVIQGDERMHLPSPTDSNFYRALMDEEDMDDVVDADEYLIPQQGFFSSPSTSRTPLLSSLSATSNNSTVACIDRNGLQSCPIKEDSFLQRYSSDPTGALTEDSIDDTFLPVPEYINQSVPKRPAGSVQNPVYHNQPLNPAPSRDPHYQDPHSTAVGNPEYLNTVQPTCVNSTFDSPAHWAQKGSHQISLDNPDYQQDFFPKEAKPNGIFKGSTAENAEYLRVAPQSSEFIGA

| Structure (SMILES) | IC50 [1, 6] [nM] | IC50 [1, 7] [nM] | IC50 [2, 8] [nM] | IC50 [2, 9] [nM] | IC50 [3, 10] [nM] | IC50 ([3]; IC50 WT (nM), 100 μM ATP) [nM] | IC50 [4, 11] [nM] | IC50 [4, 12] [nM] | IC50 [5, 13] [nM] | IC50 [5, 14] [nM] |
| --- | --- | --- | --- | --- | --- | --- | --- | --- | --- | --- |
| C[C@]1(O)CC[C@@H](Nc2cc(Nc3ccnc(-c4cnn(S(=O)(=O)C5CC5)c4)n3)ncc2C#Cc2cnn(CC(F)F)c2)CC1 [Example 323, (1s,4s)-4-((2-((2-(1-(Cyclopropylsulfonyl)-1H-pyrazol-4-yl)pyrimidin-4-yl)amino)-5-((1-(2,2-difluoroethyl)-1H-pyrazol-4-yl)ethynyl)pyridin-4-yl)amino)-1-methylcyclohexan-1-ol] | 0.2 | 0.8 | 14.3 | 184 | 146 | > 10000 | 4.5 | 7.4 | 0.3 | 0.6 |
| O=S(=O)(C1CC1)n1cc(-c2nccc(Nc3cc(N[C@H]4CC[C@@H](CO)CC4)c(C#Cc4cnn(CC(F)F)c4)cn3)n2)cn1 [Example 324, ((1s,4s)-4-((2-((2-(1-(Cyclopropylsulfonyl)-1H-pyrazol-4-yl)pyrimidin-4-yl)amino)-5-((1-(2,2-difluoroethyl)-1H-pyrazol-4-yl)ethynyl)pyridin-4-yl)amino)cyclohexyl)methanol] | 0.2 | 0.5 | 3.7 | 20.9 | 16.5 | > 10000 | 1.3 | 2 | 0.3 | 0.3 |
| CC(C)(O)[C@H]1CC[C@@H](Nc2cc(Nc3ccnc(-c4cnn(S(=O)(=O)C5CC5)c4)n3)ncc2C#Cc2cnn(CC(F)F)c2)CC1 [Example 325, 2-((1s,4s)-4-((2-((2-(1-(Cyclopropylsulfonyl)-1H-pyrazol-4-yl)pyrimidin-4-yl)amino)-5-((1-(2,2-difluoroethyl)-1H-pyrazol-4-yl)ethynyl)pyridin-4-yl)amino)cyclohexyl)propan-2-ol] | 0.8 | 2.1 | 16.3 | 89.8 | 115 | > 10000 | 6.2 | 6.9 | 0.9 | 1.1 |
| CC1(O)CCC(Nc2cc(Nc3ccnc(-c4cnn(S(=O)(=O)C5CC5)c4)n3)ncc2C#Cc2cnn(C3CC3(F)F)c2)CC1 (stereo not drawn) [Example 326, (1s,4s)-4-((2-((2-(1-(Cyclopropylsulfonyl)-1H-pyrazol-4-yl)pyrimidin-4-yl)amino)-5-((1-(2,2-difluorocyclopropyl)-1H-pyrazol-4-yl)ethynyl)pyridin-4-yl)amino)-1-methylcyclohexan-1-ol] | 0.6 | 2.1 | 5.3 | 145 | 17.6 | > 10000 | 10.3 | 19.2 | 1.9 | 1.9 |
| O=S(=O)(C1CC1)n1cc(-c2nccc(Nc3cc(NC4CCC(CO)CC4)c(C#Cc4cnn(C5CC5(F)F)c4)cn3)n2)cn1 (stereo not drawn) [Example 327, ((1s,4s)-4-((2-((2-(1-(Cyclopropylsulfonyl)-1H-pyrazol-4-yl)pyrimidin-4-yl)amino)-5-((1-(2,2-difluorocyclopropyl)-1H-pyrazol-4-yl)ethynyl)pyridin-4-yl)amino)cyclohexyl)methanol] | 0.8 | 1.5 | 2.1 | 39.3 | 11.9 | > 10000 | 1.6 | 4.8 | 2.2 | 2.5 |
| CC(O)C1CCN(c2cc(Nc3ccnc(-c4cnn(S(=O)(=O)C5CC5)c4)n3)ncc2C#Cc2cnn(C(F)(F)F)c2)CC1 (stereo not drawn) [Example 328, 1-(1-(2-((2-(1-(Cyclopropylsulfonyl)-1H-pyrazol-4-yl)pyrimidin-4-yl)amino)-5-((1-(trifluoromethyl)-1H-pyrazol-4-yl)ethynyl)pyridin-4-yl)piperidin-4-yl)ethan-1-ol] | 1 | 22.7 | 25.8 | 47.4 | 162 | > 10000 | 36.6 | 648 | 5.3 | 3.1 |

Source: patent US11981658B2, “Substituted aminopyridine compounds as EGFR inhibitors” (YUHAN CORPORATION, priority 2021, dated 2024)
